“And” between values parts separate entries of the source, which are not always exact repeats. Identical values can stand only once.
Columns and labels:
[1] = test system: bleomycin-instilled male Wistar rats; assay: Bleomycin-induced pulmonary fibrosis in rats: lung and body weight, histology, collagen deposition; conditions: for Body weight / Left lung weight / Ratio (lung weight to body weight): 7-9 days after intra-tracheal bleomycin, PMX53 10 mg/kg p.o. daily; for collagen deposition in lung: acute lung inflammation
Method: Male Wistar rats, 6 weeks of age, were used. The rats were divided into 5 groups:
Group 1: bleomycin instillation only (n=9)
Group 2: saline instillation only (n=3)
Group 5: Untreated rats maintained in the same environment as the other groups (n=3).
Drug-treated rats were given drug for 3 days before bleomycin administration.
One intra-tracheal instillation of bleomycin at a dose of 0.5 mg/100 g (0.7 U/100 g) in 200 μl of saline was performed on Day 1, as described by Taylor et al., (2002). Rats were anaesthetized by inhalation of 5% or less halothane via a vaporizer. After a local spray of Xylocalne to prevent airway spasm, the rats were intubated and a slow injection of bleomycin or sline control was completed. The rats were then rotated gently for about 1-2 minutes to allow the solution to diffuse evenly into both lungs (Christensen et al 2000). Rats were kept in the fume cupboard until totally recovered, and then monitored for up to 18 days. Body weight, food and water intake, and respiration were monitored daily.
Respiration was elevated as follows: Score 0, normal respiration; Score 1, increased rate of breathing; and Score 2, mouth open respiration. Rats were euthanased before the end of the experimental period, if they consistently lost more than 10% bodyweight for 48 hours, had Score 2 respiration or had Score 1 respiration for 48 hours.
At the end of this period the rats were killed by exsanguination under anaesthesia, so that the lungs were clear of blood. For each rat, the left lung was immediately frozen in liquid nitrogen and stored at −20° C. for quantitative collagen analysis using hydroxyproline assay. The right lung was fully inflated and fixed with 10% formulated formalin by airway gravity fixation at a pressure of 30 cm water for 1 minute. Haematoxylin and eosin (H&E) and Picro Sirius Red (PR) staining for collagen were performed to assess collagen deposition in the lung. For quantitation of collagen stained with PR, polarized light images were converted to grey scale, and the total number of white pixels (specific for collagen) per image was determined as a percentage of the total pixel area. The procedure was applied to a total of four fields in the alveolar area and two fields in the peribronchial area and blood vessels per sample (Wang et al, 2000). The largest lobe of the right lung (from 4 lobes) in each rat was chosen. The data was analysed using the program “Sion Image”.
Data were compiled as the means±SE in the study. Tests of significance were obtained by ANOVA followed by Student-Newman-Keuls post analysis.

[2] = test system: bleomycin-instilled male Wistar rats; assay: Hydroxyproline assay of lung, bleomycin-induced pulmonary fibrosis; assay type: in vivo, rat; conditions: 18 days after bleomycin instillation
Method: (§1) The data was analysed using the program “Sion Image”.
Hydroxyproline assay was performed by the method of Christensen et al 1 (2000). Lung tissue was excised, trimmed free of surrounding conducting airways, and homogenized in 2 mls saline. A 1 ml aliquot of lung homogenate was hydrolysed in 6N HCl (0.5 ml of homogenate and 0.5 ml of 12N HCl) at 110° C. for 12 hours; 50 μl aliquots were added to 1 ml of 14% chloramine T, 10% n-propanol, and 0.5M sodium acetate, pH 6.0. After 20 min at 22° C., 1 ml of Ehrlich's solution (1M p-dimethylaminobenzaldehyde in 70% n-propanol and 20% perchloric acid) was added and allowed to incubate at 65° C. for 15 min. Absorbance was measured at 550 nm, and the amount of hydroxyproline was determined against a standard curve generated with the use of known concentrations of reagent-grade hydroxyproline.

[3] = test system: bleomycin-instilled male Wistar rats; assay: Picro Sirius Red (PR) staining for collagen in lung, bleomycin-induced pulmonary fibrosis; assay type: in vivo, rat; conditions: 18 days after bleomycin, individual rats, n = 3-4
Method: as §1

[4] = test system: L-NAME-treated male Wistar rats; assay: Collagen distribution and inflammatory cells in heart and kidney sections (picrosirius red image analysis), L-NAME rats; assay type: in vivo, rat
Method: Collagen deposition was measured by image analysis using laser confocal microscopy of picrosirius red-stained cardiac slices, as described below. […] The stained sections were analyzed with an Image Pro plus analysis program using an Olympus BH2 microscope, with results expressed as a percentage of red area in each screen. At least 4 areas were examine in each heart.

[5] = test system: L-NAME-treated male Wistar rats; assay: Isolated Langendorff heart preparation (diastolic stiffness), L-NAME rats; assay type: in vivo, rat
Method: The Langendorff isolated heart preparation was used to determine the diastolic stiffness of the left ventricles ex vivo. […] To assess myocardial stiffness in isolated Langendorff hearts, stress (σ, dyne/cm2) and tangent elastic modulus (E, dyne/cm2) for the […] equator of the left ventricle were calculated by assuming spherical geometry of the ventricle and considering the […] equatorial region as representative of the remaining myocardium: […] Myocardial diastolic stiffness is calculated as the diastolic stiffness constant (k, dimensionless), the slope of the linear relation between E and σ (Mirsky and […], 1973). To assess contractile function, maximal +dP/dt was calculated at a diastolic pressure of 5 mmHg. […] The negative log EC50 of the increase in either force of contraction in mN or rate of contraction in beats/min was determined from the concentration giving half-maximal responses in individual concentration-response curves. Renal function results were corrected for kidney wet weight measured at the end of the experiment.

[6] = test system: L-NAME-treated male Wistar rats; assay: L-NAME-induced hypertension/cardiac fibrosis in rats: intake, growth, tail-cuff blood pressure, organ weights; assay type: in vivo, rat
Method: Male Wistar rats (8 weeks old) were obtained from the Central Animal Breeding House of The University of Queensland.
This agent was administered at a dosage of 1 mg/kg/day orally for 4 days before rats were additionally treated with nitro-L-arginine methyl ester (L-NAME) for 4 weeks, i.e. a total duration of treatment of antagonist of 32 days. L-NAME administration produces hypertension and cardiac remodelling as a result of inhibition of the production of nitric oxide (NO).
L-NAME was administered at a concentration of 400 mg/l in the drinking water for 4 weeks to give a mean daily intake of 18.7±0.4 mg L-NAME (41.4±0.8 mg/kg mean body weight). Body weight and food and water intakes were measured daily.
Systolic blood pressure was measured in selected unanaesthetised rats, using a tail-cuff method.

[7] = test system: L-NAME-treated male Wistar rats; assay: Echocardiographic analysis of cardiac function, L-NAME rats; assay type: in vivo, rat
Method: After 4 weeks of L-NAME treatment, heart function was determined in vivo by echocardiography and in vitro using the isolated Langendorff heart preparation described below. Collagen deposition was measured by image analysis using laser confocal microscopy of picrosirius red-stained cardiac slices, as described below.
Cardiac function was estimated in vivo using echocardiography, using conventional methods.

[8] = test system: streptozotocin-induced diabetes in rats; conditions: streptozotocin-induced diabetes in rats (Miric G, et al., 2001); cited from earlier work
[9] = L-NAME rats + PMX53 1 mg/kg/day orally
[10] = L-NAME rats, echocardiographic M-mode

## Bleomycin [reference compound]
[1]
  Body weight: 226 + 8.083 g
  Left lung weight: 1.004 ± 0.04 g
  Ratio (lung weight to body weight): 4.47 ± 0.46 ×10^−3
[1]; 18 days after bleomycin instillation
  lung/body weight ratio: did not show a significant difference
[1]; 7-9 days after bleomycin
  collagen deposition in lung: significant increase
[2]
  hydroxyproline levels in the rat lungs: significantly increased
[3]
  PR staining: 0.01 % of the total pixel area and 0.21 % of the total pixel area and 0.78 % of the total pixel area and 1.73 % of the total pixel area

## AcF-[OPdChaWR] [PMX53]
[4]; L-NAME rats
  glomerular collagen concentrations in the kidneys: normalized
[4]; [9]
  collagen deposition restricted to % of L-NAME only, kidney interstitium: 30%
  collagen deposition restricted to % of L-NAME only, right ventricle interstitial: 44%
  collagen deposition restricted to % of L-NAME only, right ventricle perivascular: 37%
  collagen increase as % of the increase observed in rats treated with L-NAME only, left ventricular interstitial: 23%
  collagen increase as % of the increase observed in rats treated with L-NAME only, left ventricular perivascular: 43%
[4]; following L-NAME treatment
  inflammatory cell infiltration into left or right ventricles: totally prevented
[1]
  Body weight: 228 + 7.583 g
  Left lung weight: 0.974 ± 0.132 g
  Ratio (lung weight to body weight): 4.25 ± 1.07 ×10^−3
[5]; isolated heart
  developed pressure and contractility: without altering
[5]; left ventricle ex vivo
  diastolic stiffness constant: prevented
[6]; L-NAME + antagonist versus L-NAME only
  increase in systolic blood pressure of L-NAME rats: 16 mmHg
[6]; L-NAME rats
  left ventricular wet weight: increased
[6]; control rats
  blood pressure: non-significant increase
[6]; tail-cuff, unanaesthetised rats, day 32, L-NAME rats with or without PMX53 1 mg/kg/day orally
  systolic blood pressure: 176±3 mmHg
[7]; L-NAME rats
  E/A ratio (early to atrial mitral valve inflow rates): significantly normalised
  cardiac output: significantly normalised
  diastolic volume: significantly normalised
[7]; [10]
  left ventricular internal diameter in diastole: normalised
  left ventricular wall thickness in diastole: normalised
[7]; control rats
  any parameter measured by echocardiographic analysis: did not significantly alter

## CC(=O)N[C@@H](Cc1ccccc1)C(=O)N[C@H]1CCCNC(=O)[C@H](CCCNC(=N)N)NC(=O)[C@H](Cc2c[nH]c3ccccc23)NC(=O)[C@@H](CC2CCCCC2)NC(=O)[C@@H]2CCCN2C1=O [PMX53, AcF-[OPdChaWR]]
[1]; 7-9 days after bleomycin, H&E, n=4 per group
  lung histology (patchy lesions), treated versus non-treated: no significant difference
[1]; 7-9 days after bleomycin
  collagen deposition in lung: no significant difference
[1]; acute stage
  toxic lung inflammation induced by bleomycin: failure
[2]
  hydroxyproline levels in the rat lungs: significantly reduced
[3]; listed as Bleo + PMX53
  PR staining: 1.43 % of the total pixel area and 0.06 % of the total pixel area and 0.01 % of the total pixel area and 0.77 % of the total pixel area

## Cc1ccc(=O)n(-c2ccccc2)c1 [pirfenidone, 5-methyl-1-phenyl-2-(1H)-pyridone]
[8]
  cardiac fibrosis and increase in cardiac stiffness: can prevent and partially reverse

## CC(=O)S[C@@H]1CC2=CC(=O)CC[C@]2(C)[C@H]2CC[C@@]3(C)[C@@H](CC[C@@]34CCC(=O)O4)[C@H]12 [spironolactone]
[8]
  cardiac fibrosis and increase in cardiac stiffness: can prevent and partially reverse
